Tested on: adult cycling cynomolgus macaques
Assay: animal model of intrauterine bleeding: IUS inserted in macaques, daily vaginal swabs scored for bleeding
Type: in vivo
Details: Group 1: IUS releasing 2 μg per day of levonorgestrel, 9 monkeys
Method: The effects of administering via an intrauterine system (IUS) levonorgestrel alone, or in combination with indomethacin, were tested in animal model of intrauterine bleeding. The study was conducted using three groups of adult cycling cynomolgus macaques. The macaques were monitored to record regular menstrual cycles. Scheduled (menses) and unscheduled uterine bleeding and spotting was assessed daily by vaginal swabs, and menstrual blood loss was quantified by vaginal tampons.
After about two menstrual cycles (about 60 days), the macaques were assigned to three separate groups and laparotomized on days 6-9 of the follicular phase. For each macaque, an IUS was inserted by hysterotomy into the uterine lumen and sutured in place. Group 1 included 9 monkeys that were given an IUS that released 2 μg per day of levonorgestrel. Group 2 included 8 monkeys that were given an IUS that released 2 μg per day of levonorgestrel and 10 μg per day of indomethacin. Group 3 included 7 monkeys that were given an IUS that released 2 μg per day of levonorgestrel and 30 μg per day of indomethacin.
The frequency and type of bleeding was assessed by daily vaginal swabs. FIGS. 9A-9B illustrate the results of the different types of bleedings. Gray-shaed cells represent positive swab or frank menses, which is the most heavy form of bleeding. Diagonal-lined cells represent light positive swab, which is an intermediated type of bleeding.
The gray-shaded cells that were assigned represent the heaviest form of bleeding were assigned a score of 2. The diagonal-lined cells represent an intermediate type of bleeding and were assigned a score of 1.
For evaluation of bleeding days, the first 7 days after insertion of the IUS were neglected, since the insertion procedure by surgery causes some bleeding that is unrelated to treatment effects. FIGS. 9A-9B include data for a period of 80 days after the IUS was inserted in each of the macaques.

[1] = 80 days after insertion, first 7 days neglected

## C#C[C@]1(O)CC[C@H]2[C@@H]3CCC4=CC(=O)CC[C@@H]4[C@H]3CC[C@@]21CC [levonorgestrel]
  average score for each of the macaques (heaviest bleeding = 2, intermediate = 1): 11.9
  total score for all of the macaques (heaviest bleeding = 2, intermediate = 1): 107
[1]
  average number of bleeding days per macaque: 8.6 days
  total number of bleeding days: 77 days

— patent publication US20170312219A1, “METHOD OF CONTRACEPTION” (Bayer Oy, priority 2008, published 2017)
